# In US10385022B2, “3-amino-pyridines as GPBAR1 agonists” (HOFFMANN-LA ROCHE INC., priority 2011, dated 2019):
# Biological target: human GPBAR1 receptor (Homo sapiens (Human), UniProt Q8TDU6)
# Experiment: functional cAMP assay in CHO-dhfr(minus) cells expressing human GPBAR1 receptors
# Format: cell-based
# Conditions: CHO-dhfr(minus) cells expressing human GPBAR1, 30 min at 30° C.
# Summary of the method: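 Functional cAMP responses in a human GPBAR1-transfected CHO-dhfr- clone, picked using lithocholic acid as agonist, gave the EC50 values. Parallel testing in untransfected CHO cells served as a specificity control.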
# Sequence of human GPBAR1 receptor (Q8TDU6 whole entry): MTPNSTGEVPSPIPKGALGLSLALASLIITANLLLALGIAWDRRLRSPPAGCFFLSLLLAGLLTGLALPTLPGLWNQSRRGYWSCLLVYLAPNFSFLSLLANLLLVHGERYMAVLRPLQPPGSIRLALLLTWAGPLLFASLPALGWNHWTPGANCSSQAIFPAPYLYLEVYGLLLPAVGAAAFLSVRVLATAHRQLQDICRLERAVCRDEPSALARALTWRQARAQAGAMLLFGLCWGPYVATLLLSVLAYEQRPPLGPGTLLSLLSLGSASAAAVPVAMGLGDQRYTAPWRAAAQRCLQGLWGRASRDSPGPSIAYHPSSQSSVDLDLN
row,EC50,Compound
1,539 nM,"CS(=O)(=O)c1cc(C(=O)N(CC(F)(F)F)c2cnccc2-c2ccccc2Cl)cc(C(F)(F)F)c1 [Example 287, N-[4-(2-Chloro-phenyl)-pyridin-3-yl]-3-methanesulfonyl-N-(2,2,2-trifluoro-ethyl)-5-trifluoromethyl-benzamide]"
2,1480 nM,"CS(=O)(=O)CCN(C(=O)c1cc(C(F)(F)F)cc(S(C)(=O)=O)c1)c1cnccc1-c1ccccc1Cl [Example 288, N-[4-(2-Chloro-phenyl)-pyridin-3-yl]-3-methanesulfonyl-N-(2-methanesulfonyl-ethyl)-5-trifluoromethyl-benzamide]"
3,275 nM,"COC(=O)CN(C(=O)c1cc(C(F)(F)F)cc(S(C)(=O)=O)c1)c1cnccc1-c1ccccc1Cl [Example 289, [[4-(2-Chloro-phenyl)-pyridin-3-yl]-(3-methanesulfonyl-5-trifluoromethyl-benzoyl)-amino]-acetic acid methyl ester]"
4,88 nM,"COc1cc(F)ccc1-c1ccncc1N(C)C(=O)c1cc(C(F)(F)F)cc(S(=O)(=O)C2CN(S(N)(=O)=O)C2)c1 [Example 292, N-[4-(4-Fluoro-2-methoxy-phenyl)-pyridin-3-yl]-N-methyl-3-(1-sulfamoyl-azetidine-3-sulfonyl)-5-trifluoromethyl-benzamide]"
5,2460 nM,"COc1cc(F)ccc1-c1ccncc1N(Cc1nc(C)co1)C(=O)c1cc(C(F)(F)F)cc(S(C)(=O)=O)c1 [Example 293, N-[4-(4-Fluoro-2-methoxy-phenyl)-pyridin-3-yl]-3-methanesulfonyl-N-(4-methyl-oxazol-2-ylmethyl)-5-trifiuoromethyl-benzamide]"
6,42 nM,"CS(=O)(=O)c1cc(C(=O)N(Cc2ncco2)c2cnccc2-c2ccccc2Cl)cc(C(F)(F)F)c1 [Example 294, N-[4-(2-Chloro-phenyl)-pyridin-3-yl]-3-methanesulfonyl-N-oxazol-2-ylmethyl-5-trifluoromethyl-benzamide]"
7,445 nM,"Cc1c(F)cccc1-c1ccncc1N(C)C(=O)c1cc(C(F)(F)F)cc(S(C)(=O)=O)c1 [Example 295, N-[4-(3-Fluoro-2-methyl-phenyl)-pyridin-3-yl]-3-methanesulfonyl-N-methyl-5-trifluoromethyl-benzamide]"
8,1340 nM,"CS(=O)(=O)c1cc(C(=O)N(CC(N)=O)c2cnccc2-c2ccccc2Cl)cc(C(F)(F)F)c1 [Example 296, N-Carbamoylmethyl-N-[4-(2-chloro-phenyl)-pyridin-3-yl]-3-methanesulfonyl-5-trifluoromethyl-benzamide]"
9,521 nM,"COC(=O)CN(C(=O)c1cc(C(F)(F)F)cc(S(C)(=O)=O)c1)c1cnccc1-c1cc(F)ccc1OC [Example 297, [[4-(5-Fluoro-2-methoxy-phenyl)-pyridin-3-yl]-(3-methanesulfonyl-5-trifluoromethyl-benzoyl)-amino]-acetic acid methyl ester]"
10,788 nM,"CS(=O)(=O)c1cc(C(=O)N(CC(F)(F)F)c2cnccc2-c2ccccc2OC(F)(F)F)cc(C(F)(F)F)c1 [Example 298, 3-Methanesulfonyl-N-(2,2,2-trifluoro-ethyl)-N-[4-(2-trifluoromethoxy-phenyl)-pyridin-3-yl]-5-trifluoromethyl-benzamide]"
11,952 nM,"COc1cc(F)ccc1-c1ccncc1N(C[C@@H]1CCCOC1)C(=O)c1cc(C(F)(F)F)cc(S(C)(=O)=O)c1 [Example 299, (+)-N-[4-(4-Fluoro-2-methoxy-phenyl)-pyridin-3-yl]-3-methanesulfonyl-N-[1-(tetrahydro-pyran-3-yl)methyl]-5-trifluoromethyl-benzamide]"
12,831 nM,"Cc1cc(-c2ccccc2Cl)c(N(CC(F)(F)F)C(=O)c2cc(C(F)(F)F)cc(S(C)(=O)=O)c2)cn1 [Example 300, N-[4-(2-Chloro-phenyl)-6-methyl-pyridin-3-yl]-3-methanesulfonyl-N-(2,2,2-trifluoro-ethyl)-5-trifluoromethyl-benzamide]"
13,219 nM,"COc1cc(F)ccc1-c1cc(C)ncc1N(C)C(=O)c1cc(Cl)cc(S(C)(=O)=O)c1 [Example 301, 3-Chloro-N-[4-(4-fluoro-2-methoxy-phenyl)-6-methyl-pyridin-3-yl]-5-methanesulfonyl-N-methyl-benzamide]"
14,> 10000 nM,"COc1cc(F)ccc1-c1cc(C)ncc1N(C)C(=O)c1cc(C(F)(F)F)cc(S(=O)(=O)N2CCOCC2)c1 [Example 302, N-[4-(4-Fluoro-2-methoxy-phenyl)-6-methyl-pyridin-3-yl]-N-methyl-3-(morpholine-4-sulfonyl)-5-trifluoromethyl-benzamide]"
15,18 nM,"COc1cc(F)ccc1-c1cc(C)ncc1N(C)C(=O)c1cc(Br)cc(C(F)(F)F)c1 [Example 303, 3-Bromo-N-[4-(4-fluoro-2-methoxy-phenyl)-6-methyl-pyridin-3-yl]-N-methyl-5-trifluoromethyl-benzamide]"
16,15 nM,"COc1cc(F)ccc1-c1ccncc1N(C)C(=O)c1cc(C(F)(F)F)cc(S(=O)(=O)N2CCS(=O)(=O)CC2)c1 [Example 304, 3-(1,1-Dioxo-thiomorpholine-4-sulfonyl)-N-[4-(4-fluoro-2-methoxy-phenyl)-pyridin-3-yl]-N-methyl-5-trifluoromethyl-benzamide]"
17,5 nM,"COc1cc(F)ccc1-c1ccncc1N(C)C(=O)c1cc(C(F)(F)F)cc(S(=O)(=O)N2CC3(COC3)C2)c1 [Example 305, N-[4-(4-Fluoro-2-methoxy-phenyl)-pyridin-3-yl]-N-methyl-3-(2-oxa-6-aza-spiro[3.3]heptane-6-sulfonyl)-5-trifluoromethyl-benzamide]"
18,190 nM,"COc1cc(F)ccc1-c1ccncc1N(CCS(C)(=O)=O)C(=O)c1cc(C(F)(F)F)cc(S(C)(=O)=O)c1 [Example 306, N-[4-(4-Fluoro-2-methoxy-phenyl)-pyridin-3-yl]-3-methanesulfonyl-N-(2-methanesulfonyl-ethyl)-5-trifluoromethyl-benzamide]"
19,300 nM,"COc1cc(F)ccc1-c1cc(C)ncc1N(CC(F)(F)F)C(=O)c1cc(C(F)(F)F)cc(S(C)(=O)=O)c1 [Example 307, N-[4-(4-Fluoro-2-methoxy-phenyl)-6-methyl-pyridin-3-yl]-3-methanesulfonyl-N-(2,2,2-trifluoro-ethyl)-5-trifluoromethyl-benzamide]"
20,936 nM,"CS(=O)(=O)CCN(C(=O)c1cc(C(F)(F)F)cc(S(C)(=O)=O)c1)c1cnccc1-c1ccccc1OC(F)(F)F [Example 308, 3-Methanesulfonyl-N-(2-methanesulfonyl-ethyl)-N-[4-(2-trifluoromethoxy-phenyl)-pyridin-3-yl]-5-trifluoromethyl-benzamide]"
21,273 nM,"COc1ccc(F)cc1-c1ccncc1N(CC(N)=O)C(=O)c1cc(C(F)(F)F)cc(S(C)(=O)=O)c1 [Example 309, N-Carbamoylmethyl-N-[4-(5-fluoro-2-methoxy-phenyl)-pyridin-3-yl]-3-methanesulfonyl-5-trifluoromethyl-benzamide]"
22,41 nM,"COc1cc(F)ccc1-c1cc(C)ncc1N(C)C(=O)c1cc(SC2COC2)cc(C(F)(F)F)c1 [Example 310, N-[4-(4-Fluoro-2-methoxy-phenyl)-6-methyl-pyridin-3-yl]-N-methyl-3-(oxetan-3-ylsulfanyl)-5-trifluoromethyl-benzamide]"
